{
  "source": "patent US8993593B2",
  "about": "“N-(4-(6-fluoro-3,4-dihydroisoquinolin-2(1H)-yl)-2,6-dimethylphenyl)-3,3-dimethylbutanamide as potassium channel modulators” (Valeant Pharmaceuticals International, priority 2006, dated 2015)",
  "key": {"[1]": {"tested_on": "rat MES model of epilepsy", "experiment": "Maximal electroshock seizure (MES) test, rat", "assay_type": "in vivo", "conditions": "po; rat MES model, dosed orally 1 hour prior to testing; read-out: ED50, inhibition of seizures", "source_text": "The MES testing protocol is based on procedures established at the National Institute of Neurological Disorders and Stroke in conjunction with the Anticonvulsant Screening Program (ASP) at the University of Utah (White, H. S., Woodhead, J. H., Wilcox, K. S., Stables, J. P., Kupferberg, H. J and Wolf, H. H. 2002. “General Principles: Discovery and Preclinical Development of Antiepileptic Drugs,” in Antiepileptic Drugs, 5th Edition, R. H. Levy, ed.; R. H. Mattson, B. S. Meldrum, and E. Perucca. Philadelphia, Lippincott Williams & Wilkins.), The goal of the test rapid identification and characterization of the in vivo anticonvulsant activity of any compounds that have been shown active in PC-12 cellular based Rb^+ efflux assay.\nAdult male CF-I albino mice (18-25 g, Charles River Laboratories) are exclusively used for in-house MES screen of compounds. Male Sprague-Dawley albino rats (100-125 g, Charles River Laboratories) are also used to test anticonvulsant compounds. Variability of test outcomes is reduced by using animals of the same sex, age, and weight. Animals are permitted to rest and recover from transit for at least 48 hr prior to experimentation. Animals are used for AED testing only once. In some instances, the animals may be anesthetized prior to blood collection and/or whole brain extraction for pharmacokinetic assay. All animals are maintained and handled as outlined in standard animal care guidelines.\nIn the experiments, testing compounds are prepared as suspensions in 0.5% methyl cellulose (Sigma, Cat #M0512, Viscosity 4000 cP at 20° C.) in water, regardless of solubility. Dry powder compounds are initially ground with a glass rod in a test tube in several drops of methyl cellulose to create a paste and to break down any large chunks. After several minutes of grinding, the volume of the suspension is increased to the final concentration desired. The suspension is then sonicated using a Branson sonicator model 3510 in a water bath at room temperature for 15 minutes. Compound suspensions are further vortexed prior to animal dosing. In some of the cases, DMSO is used to initially solubilize compounds in small volumes and then this solution is added to the 0.5% methyl cellulose solution, in order to create more even and less aggregated compound suspensions. The final concentration of DMSO is 3.75%, an amount with no apparent toxicity or neuroprotective effects in our usual rotarod and MES tests. Methyl cellulose/DMSO compound suspensions are identically prepared for intraperitoneally (i.p.) to mice or orally (p.o.) to rat dosing.\nInitially the animals are weighed with an electronic scale and then marked. Data recording sheets are generated for each compound assessment. Mice or rats are dosed with the compound suspension at 0.01 mL/g of body weight. The typical injection volume range is between 180-250 μl for mice. Compounds are dosed by i.p. to mice using a 25 or 22 gauge needle, depending on the viscosity of the suspension. Rats are p.o. dosed using a flexible feeding tube, typically starting at a compound dose of 5 mg/kg.\nA Rodent Electroconvulsive Stimulator (Model 200, Hamit-Darvin-Freesh, Snow Canyon Clinic, Ivins, Utah) is used for MES testing. A 60-Hz alternating current (50 mA for mice; 150 mA for rats) is delivered for 0.2 seconds through corneal electrodes to the mice. […] Animals are monitored for hind limb tonic extension as the end point for this test. Current delivery is recorded as a measure of overall seizure-induction potential. […]"}, "[2]": {"experiment": "Rotarod test (motor impairment, acute toxicity)", "conditions": "CF-1, in vivo, oral; behavioral rotarod model, mouse", "protocol": "Prior to MES testing, compound dosed mice are scrutinized for abnormal neurologic status as defined by motor impairment on a slowly turning (6 rpm) rotarod apparatus (Model 755, Series 8, IITC Life Sciences, Woodland Hills, Calif.). […] These measurements are done at the same time points as the MES assay. Untreated normal mice are able to maintain balance on the rotarod for at least one minute without falling. Median toxicity of a compound (TD50, the dose of a drug that results in motor impairment in 50% of animals) is determined."}, "KCNQ2/3": {"molecular_target": "KCNQ2/3 (Homo sapiens, UniProt O43525+O43526)", "experiment": "Two-electrode voltage-clamp in Xenopus laevis oocytes, KCNQ2/3", "assay_type": "cell-based", "protocol": "(§1) Female Xenopus laevis extracted ovaries were purchased from eNASCO (LM00935MX, eNASCO Fort Atkinson, Wis.). […] Approximately 50 nl cRNA (about 50 ng) was injected for KCNQ1, KCNQ4, and KCNQ5 using a Nanoject microinjector (Drummond, Broomall, Pa., USA). For co-expression of KCNQ2 and KCNQ3 and of KCNQ1 and KCNE1, cRNA's were mixed in equal molar ratios before injection of approximately 50 nl. […] Oocytes were kept in Culture Barth solution at 19° C. which was changed daily and currents were recorded after 3 to 5 days.\n(§2) KCNQ channel currents expressed in Xenopus laevis oocytes were recorded using a two-electrode voltage-clamp. […] The oocytes were placed in custom built perfusion chambers connected to a continuous flow system and impaled with a current electrode and a voltage-clamp electrode pulled from borosilicate glass on a Flaming/Brown Micropipette Puller (Sutter Instruments Co, Novato, Calif., USA).\n(§3) All compounds were dissolved in DMSO to obtain concentrated stock solutions. On the day of electrophysiological experiments the stock solutions were thawed and diluted in recording solution to their final concentrations. The final DMSO concentration never exceeded 0.1%. Compound delivery was performed using a custom built multi-barrel apparatus connected to the flow system.\n(§4) Data were acquired by means of an Axograph X software (Axograph Scientific, Sydney, AU) and analyzed using Graph Pad Prism (GraphPad Software Inc., CA, USA). […]\n(§5) After steady channel current was recorded in the presence of Retigabine at its EC75, recorded oocyte was washed with the recording solution until its steady current returned to its normal level without the presence of any drugs. Then the channel steady current was recorded in the presence of the test compound at its EC75. The percent efficacy was then expressed as: % efficacy=(C2/C 1)×100 where C2 is the recorded steady current in the presence of follow-on compound at its EC75 and C1 is the recorded steady current in the presence of Retigabine at its EC75."}, "KCNQ5": {"molecular_target": "KCNQ5 (Homo sapiens, UniProt Q9NR82)", "experiment": "Two-electrode voltage-clamp in Xenopus laevis oocytes, KCNQ5", "assay_type": "cell-based", "protocol": "as §1, §2, §3, §4, §5"}},
  "data": [
    {"smiles": "Cc1cc(N2CCc3cc(F)ccc3C2)cc(C)c1NC(=O)CC(C)(C)C", "note": "[compound A, N-[4-(6-fluoro-3,4-dihydro-1H-isoquinolin-2-yl)-2,6-dimethylphenyl]-3,3-dimethyl butanamide]", "values": [
      {"measurement": "ED50", "setting": "[1]", "result": 1.1, "unit": "mg/kg"},
      {"measurement": "TD50 at 2 h", "setting": "[2]", "result": 12.6, "unit": "mg/kg"},
      {"measurement": "EC50", "setting": "KCNQ2/3", "result": 350, "unit": "nM"},
      {"measurement": "KCNQ2/3 Efficacy Relative to Retigabine (%)", "setting": "KCNQ2/3; oocyte expression, at EC75", "result": 143, "unit": "%"},
      {"measurement": "EC50", "setting": "KCNQ5", "result": 350, "unit": "nM"},
      {"measurement": "KCNQ5 Efficacy Relative to Retigabine (%)", "setting": "KCNQ5; oocyte expression, at EC75", "result": 100, "unit": "%"}
    ]}
  ]
}
